According to patent publication US20050019850A1, “Method for identifying fungicidally active compounds based on guanylate kinases” (priority 2003, published 2005):

Molecular target: U. maydis guanylate kinase (Mycosarcoma maydis, UniProt A0A0D1DZ04)
Assay: Determination of the KM value of guanylate kinase for its substrates (Lineweaver/Burk)
Type: biochemical, Ustilago maydis
Details: read-out: KM value; FIG. 3, Lineweaver/Burk representation; substrate of guanylate kinase
Excerpt: Lineweaver/Burk representation of the data: 1/Vo=1/Vmax+1/S×(KM/Vmax), wherein Vo is the initial reaction rate, Vmax the maximum conversion rate possible and S the substrate concentration. Vmax and KM can then be read as the intercepts on the horizontal and the vertical axes 1/Vmax and 1/KM, respectively.
Here, pyruvate kinase converts phosphoenolpyruvate into pyruvate, which is then utilised by lactate dehydrogenase for oxidizing NADH to give NAD. The NAD concentration, which increases owing to the coupled reaction, or the NADH concentration, which decreases owing to the coupled reaction, can be measured photospectrometrically by absorption or fluorescence measurement (absorption drops at 340 nm, fluorescence drops at 340 nm (emission at 465 nm)).

Chain of U. maydis guanylate kinase (A0A0D1DZ04 118-213, added parts left off): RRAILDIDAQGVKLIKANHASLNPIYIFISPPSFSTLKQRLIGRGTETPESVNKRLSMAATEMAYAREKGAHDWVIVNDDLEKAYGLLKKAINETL

Structure (SMILES)	Km [µM]
Nc1ncnc2c1ncn2[C@@H]1O[C@H](COP(=O)(O)OP(=O)(O)OP(=O)(O)O)[C@@H](O)[C@H]1O [ATP]	100
Nc1nc2c(ncn2[C@@H]2O[C@H](COP(=O)(O)O)[C@@H](O)[C@H]2O)c(=O)[nH]1 [GMP]	40
